From paper PMC4006130 (Pflugers Archiv, 2013)

Biological target: NHE1 (Rattus norvegicus, UniProt P26431)
Assay: BCECF intracellular pH recovery after ammonium prepulse
Type: cell-based

Sequence of NHE1 (P26431 whole entry): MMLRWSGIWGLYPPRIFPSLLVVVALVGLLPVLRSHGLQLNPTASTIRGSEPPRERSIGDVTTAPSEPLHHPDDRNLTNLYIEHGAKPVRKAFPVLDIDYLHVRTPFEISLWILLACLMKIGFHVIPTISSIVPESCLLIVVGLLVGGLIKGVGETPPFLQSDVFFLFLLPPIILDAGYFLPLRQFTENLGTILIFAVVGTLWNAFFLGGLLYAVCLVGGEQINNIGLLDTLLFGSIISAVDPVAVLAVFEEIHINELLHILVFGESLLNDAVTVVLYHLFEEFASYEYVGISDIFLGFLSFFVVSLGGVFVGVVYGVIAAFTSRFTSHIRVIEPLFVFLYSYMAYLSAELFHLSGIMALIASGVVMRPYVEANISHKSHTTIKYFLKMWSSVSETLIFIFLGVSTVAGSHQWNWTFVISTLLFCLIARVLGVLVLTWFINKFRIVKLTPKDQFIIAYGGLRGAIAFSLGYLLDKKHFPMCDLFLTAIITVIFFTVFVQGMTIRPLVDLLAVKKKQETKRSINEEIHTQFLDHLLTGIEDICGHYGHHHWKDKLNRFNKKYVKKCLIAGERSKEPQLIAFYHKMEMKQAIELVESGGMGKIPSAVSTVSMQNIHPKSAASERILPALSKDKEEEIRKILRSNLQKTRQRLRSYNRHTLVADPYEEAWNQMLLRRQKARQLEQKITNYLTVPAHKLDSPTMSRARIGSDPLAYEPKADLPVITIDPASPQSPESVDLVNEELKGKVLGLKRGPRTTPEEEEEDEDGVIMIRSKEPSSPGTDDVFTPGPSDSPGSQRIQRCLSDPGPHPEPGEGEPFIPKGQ

IC50: 1.1 µM
SMILES: CC(C)c1ccc(C(=O)NC(=N)N)cc1S(C)(=O)=O [cariporide]
